What was measured:
[1] = system: ovariectomized rats; test: Modified pregnancy maintenance experiment with pharmacokinetic/pharmacodynamic model (AUC versus pregnancy maintenance); format: in vivo; details: rat, calculated from physiologically based PK model
Excerpt: In order to describe the difference in their progestational potency more precisely, in a modified pregnancy maintenance experiment blood samples were additionally taken at various times to determine pharmacokinetic parameters. The rats were pretreated in this case as described in the preceding experiment. A physiologically based pharmacokinetic model was developed using the programmes PK-SIM, version 4.0.1 (Bayer Technology Services, Leverkusen, Germany), GastroPlus version 5.2 (Simulations Plus, Inc., Lancaster, Calif., USA) and WinNonlin® Professional (version 5.2, Pharsight Corp., Mountain View, Calif., USA).
The relation was found between the AUC (area under the curve of the time-concentration profile) reached during the experiment and the measured pharmacological effect, i.e. the pregnancy maintenance achieved. The model thus permitted estimation of AUC50 values.
Based on the relation between systemic exposure and effect, the AUC in blood necessary to achieve 80% pregnancy maintenance in the rat model was calculated (Table 2).

[2] = system: IDI1 mRNA; test: Antiandrogenic effect in orchidectomized rats, gene expression in prostate tissue (TaqMan PCR); details: for antiandrogenic effect (in words): IDI1 gene expression, orchidectomized rats; for fold induction at 10 mg/kg: Rattus norvegicus, 24 h, read-out: x-fold induction factor of IDI1 mRNA after TP administration; for Antiandrogenic effect (% inhibition): inhibition of TP-induced IDI1 mRNA induction, prostate, 24 hours
Experimental: As a modification of the Hershberger assay described above, in addition animals were sacrificed 24 hours after the first treatment (1 mg/kg TP, 10 mg/kg test substance), and prostate tissue was shock-frozen immediately after the autopsy and then employed for mRNA isolation. A quantitative PCR method (TagMan) was used to investigate the induction (x-fold induction factor) of androgen-stimulated genes, inter alis of steroid biosynthesis (e.g. IDI1, NM 004508.2) as a measure of the androgenic effect of TP and the inhibition thereof by the compounds of the invention.

[3] = system: ovariectomized rats; test: Progestational effect in ovariectomized rats (pregnancy maintenance test); format: in vivo, rat; details: ovariectomized pregnant rats, 5 μg/kg/d oestrone, treatment from day 8 p.c. for 6 days
Experimental: This entails investigating the ability of the compounds to compensate for the lack of progesterone in ovariectomized animals which no longer have their own progesterone synthesis and to maintain pregnancy (“pregnancy maintenance”).
Female animals weighing 200-230 g were mated. The animals were ovariectomized on day 8 post coitum (p.c.) and treated with 5 μg/kg/d oestrone. The compounds to be tested were given in various concentrations (3, 10, 30 mg/kg/d). Treatment was started on day 8 p.c. and continued for 6 days.
One day after the last treatment, the animals were autopsied. The degree of pregnancy maintenance was calculated by dividing the number of live fetuses by the number of detectable implantation sites. The presence of a beating heart was decisive for assessing a fetus as alive. No identifiable implantation sites (ovariectomized controls) was defined as 0% pregnancy maintenance.
The ED50 (concentration at which the half-maximum effect occurs) was determined as a measure of the progestational potency.

[4] = system: orchidectomized rats; test: Antiandrogenic effect in orchidectomized rats (Hershberger); format: in vivo, rat; details: for Antiandrogenic effect (% inhibition): 1 mg/kg/day TP s.c. plus 10 mg/kg/day test substance for seven days, prostate weight; for antiandrogenic effect (in words): Hershberger
Experimental: This entails testing the suitability of the compounds for inhibiting the androgen-dependent growth of prostate, seminal vesicle and levator ani muscle in young, male, castrated rats receiving androgen replacement.
For this purpose, young rats are initially castrated. Eight days after the orchidectomy, the animals receive 1 mg/kg/day testosterone propionate (TP) s.c. alone or in combination with the test substances (10 mg/kg/day) for seven days.
On day 15 after the orchidectomy, the animals are sacrificed, and prostate, seminal vesicle and levator ani muscle are dissected out, and the relative wet weight is determined. The inhibited androgen-induced growth serves as a measure of the antiandrogenic effect of the test substance.

[5] = system: adrenalectomized rats; test: Antimineralocorticoid effect in adrenalectomized rats (diuresis experiment); format: in vivo, rat; details: for ED50, antimineralocorticoid effect in the diuresis experiment: adrenalectomized male rats, s.c., aldosterone 1 μg/kg/h, AUC of urinary Na/K ratio
Experimental: The antimineralocorticoid effect of the compounds was determined as described by Losert at al. (Losert, W., Casals-Stenzel, J., and Buse, M. (1985). Progestogens with antimineralocorticoid activity. Arzneimittelforschung 35, 459-471).
Male animals weighing 180-200 g were adrenalectomized 5 days before the experiment and received replacement with glucocorticoids. A diuresis experiment was carried out on day 5 after the adrenalectomy. A continuous infusion of isotonic NaCl solution plus 5% glucose was administered i.v. to the animals. Simultaneous administration of 1 μg/kg/h d-aldosterone achieved a constant mineralocorticoid effect, identifiable from sodium retention and kaliuresis. The test compounds were administered s.c. in various dosages (3, 10 and 30 mg/kg), and the abolition of the aldosterone-induced sodium retention indicates an antimineralocorticoid effect.
The animals were kept in metabolism cages and urine fractions were collected each hour. The sodium and potassium ion concentration in the urine was determined by a flame-photometry method, and the Na/K ratio was calculated therefrom. The Na/K ratios were plotted against time and the area under the curve [AUC] was determined. The ED50 (concentration at which the half-maximum effect occurs) was determined as a measure of the antimineralocorticoid potency.

[6] = biological target: T1, human androgen receptor (hAR) (Homo sapiens, UniProt P10275); test: Antiandrogen transactivation assay (PC3 cells, hAR, MMTV-luciferase reporter); format: cell-based; details: for IC50: PC3 cells stably transfected with hAR and MMTV-luciferase, 16 hours incubation, read-out: IC50, antiandrogenic effect in the transactivation assay; for Efficacy: per cent of the maximum effect of reference antiandrogen hydroxyflutamide
T1 construct: expressed in transfected cells; host or cells: PC3 cells, stably transfected with hAR and an MMTV-luciferase reporter
T1 sequence (P10275 1-920): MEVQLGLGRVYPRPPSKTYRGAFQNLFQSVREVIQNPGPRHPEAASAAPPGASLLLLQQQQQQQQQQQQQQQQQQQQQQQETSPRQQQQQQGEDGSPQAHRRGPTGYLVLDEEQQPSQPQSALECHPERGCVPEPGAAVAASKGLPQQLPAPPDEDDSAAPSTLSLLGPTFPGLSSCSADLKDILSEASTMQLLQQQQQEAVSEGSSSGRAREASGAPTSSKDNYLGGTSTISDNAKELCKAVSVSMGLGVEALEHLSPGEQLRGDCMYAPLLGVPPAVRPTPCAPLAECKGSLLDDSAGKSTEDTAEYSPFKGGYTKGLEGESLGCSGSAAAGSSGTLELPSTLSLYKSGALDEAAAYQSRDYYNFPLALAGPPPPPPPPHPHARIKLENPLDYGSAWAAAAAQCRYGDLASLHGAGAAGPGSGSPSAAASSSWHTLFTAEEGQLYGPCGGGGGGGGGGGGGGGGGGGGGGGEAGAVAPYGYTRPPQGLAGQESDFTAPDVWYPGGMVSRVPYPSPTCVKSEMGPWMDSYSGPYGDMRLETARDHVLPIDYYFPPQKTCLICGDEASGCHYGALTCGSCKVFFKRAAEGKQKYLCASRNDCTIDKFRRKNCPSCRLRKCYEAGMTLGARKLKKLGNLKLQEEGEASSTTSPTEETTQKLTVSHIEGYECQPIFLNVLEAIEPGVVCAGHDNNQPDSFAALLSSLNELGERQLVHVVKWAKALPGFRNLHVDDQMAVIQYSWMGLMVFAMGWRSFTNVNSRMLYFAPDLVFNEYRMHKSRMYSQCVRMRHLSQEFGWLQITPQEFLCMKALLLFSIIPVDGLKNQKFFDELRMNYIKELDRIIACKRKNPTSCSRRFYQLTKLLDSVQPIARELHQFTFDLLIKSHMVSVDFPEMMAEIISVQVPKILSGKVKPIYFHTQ
Experimental: The antiandrogenic effect was carried out as described in Schneider et al. (Schneider K., Graf E., Irran E., Nicholson G., Stainsby F. M., Goodfellow M., Borden S. A., Keller S., Süssmuth R. D. and Fiedler H. P. (2008) Bendigoles A˜C, New Steroids from Gordonia australis Acta 2299, J. Antibiotics (Tokyo) 61 (6), 356-364).
The culture medium used for culturing cells used for the assay was RPMI (PAA, #E15-49) with 10% FCS, […] L-glutamine, 100 U/100 ug/ml penicillin/streptomycin. Reporter cell lines (PC3 cells stably transfected with human androgen receptor (hAR) and a reporter construct which comprises luciferase under the control of an androgen-responsive promoter (MMTV)) were grown at a density of 4×10^4 cells per well in white, opaque tissue culture plates with 96 wells in each (Perkin Elmer, #P12-106-017) and maintained in culture medium with 3% DCC-FCS (serum treated with activated carbon to remove interfering components present in the serum). The compounds to be investigated were added eight hours later, and the cells were incubated with the compounds for 16 hours. The experiments were carried out in triplicate. At the end of the incubation, the effector-containing medium was removed and replaced by lysis buffer.
After luciferase assay substrate (Promega, #E1501) had been added, the plates with the 96 wells were then inserted into a microplate luminometer (Pherastar, BMG labtech), and the luminescence was measured. The IC50 values were evaluated using software for calculating dose-activity relationships. The efficacy indicates the per cent of the maximum effect by comparison with the maximum effect of a reference antiandrogen (hydroxyflutamide).

Compound | AUC (blood, calculated) in rats necessary for 80% pregnancy maintenance [1] | antiandrogenic effect (in words) [2] | fold induction at 10 mg/kg [2] | Antiandrogenic effect (% inhibition) ([2]; 10 mg/kg test substance) [%] | ED50, progestational effect in the pregnancy maintenance test [3] [mg/kg/day] | Antiandrogenic effect (% inhibition) [4] [%] | ED50, antimineralocorticoid effect in the diuresis experiment [5] [mg/kg/day] | IC50 [6] [nM] | Efficacy [6] [per cent] | x-fold induction factor of IDI1 mRNA after TP administration ([2]; prostate tissue 24 hours after first treatment, 1 mg/kg TP, 10 mg/kg test substance) | antiandrogenic effect (in words) [4] | ED50 ([5]; Rattus norvegicus, sc) [mg/kg]
C[C@]12CCC(=O)C=C1[C@@H]1C[C@@H]1C1C2=CC[C@@]2(C)C1[C@@H]1C[C@@H]1[C@@]21CCC(=O)O1 (stereo partly drawn) [Compound of Ex. 1, 6β,7β;15β,16β-Dimethylene-3-oxo-17-pregna-4,9(11)-diene-21,17β-carbolactone] | 210 (μg*h/L) | no antiandrogenic effect | 7.89 | <0 | 2.9 | <0 | 5.9 | 240 | 19.3 | – | – | –
C[C@]12CCC(=O)C=C1[C@@H]1C[C@@H]1C1C2[C@@H](F)C[C@@]2(C)C1[C@@H]1C[C@@H]1[C@@]21CCC(=O)O1 (single isomer, unassigned) [Compound of Ex. 2, 6β,7β;15β,16β-Dimethylene-11β-fluoro-3-oxo-17-pregn-4-ene-21,17β-carbolactone] | – | – | – | – | 3.4 | 3.8 | 12.36 | 160 | 31.9 | – | – | –
CCC(=O)O[C@H]1CC[C@H]2[C@@H]3CCC4=CC(=O)CC[C@]4(C)[C@H]3CC[C@]12C [TP, testosterone propionate] | – | – | – | – | – | – | – | – | – | 7.07 | – | –
C[C@]12CCC(=O)C=C1[C@@H]1C[C@@H]1C1C2CC[C@@]2(C)C1[C@@H]1C[C@@H]1[C@@]21CCC(=O)O1 (stereo partly drawn) [Drospirenone, 6β,7β-15β,16β-dimethylene-3-oxo-17-pregn-4-ene-21,17β-carbolactone] | 1346 (μg*h/L) | smaller but distinct antiandrogenic effect | – | 27 | 10 | 22.5 | – | – | – | – | smaller but distinct antiandrogenic effect | 6.7
CC(=O)O[C@]1(C(C)=O)CC[C@H]2[C@@H]3C=C(Cl)C4=CC(=O)[C@@H]5C[C@@H]5[C@]4(C)[C@H]3CC[C@@]21C [Cyproterone acetate, cyproterone acetate] | – | strong antiandrogenic effect | 1.53 | 91 | – | 73.1 | – | – | – | – | strong antiandrogenic effect | –

From patent US20110130371A1, “C-ring-substituted pregn-4-ene-21,17-carbolactones, and pharmaceutical preparations comprising the same” (BAYER SCHERING PHARMA AKTIENGESSELSCHAFT, priority 2008, published 2011)
